Measurements from ChEMBL document CHEMBL5370531, “Design, synthesis and pharmacological evaluation of 2,3-dihydrobenzofuran IRAK4 inhibitors for the treatment of diffuse large B-cell lymphoma” (Eur J Med Chem, 2023).
pIC50: −log10 of the molar value. The source made the active and inactive calls. The calls are words filed in the database; no cut-off is given here.

How the values were obtained:
[1] = tested on: OCI-Ly10; assay: Induction of apoptosis in human OCILY10 cells assessed as upregulation of PARP cleavage at 0.1 to 1 uM incubated for 24 hrs by immunoblotting analysis; format: functional, cell-based; conditions: dose 0.1-1 µM
[2] = target: Receptor tyrosine-protein kinase erbB-4 (Homo sapiens) (UniProt Q15303); assay: Inhibition of ERBB4 (unknown origin) at 100 nM incubated for 1 hr in presence of ATP by ELISA analysis
[3] = tested on: OCI-Ly10; assay: Synergistic antiproliferative activity against human OCILY10 cells harboring MYD88 L265P assessed as inhibition of cell growth at 400 nM incubated for 72 hrs in presence of BTK inhibitor, ibrutinib at 12.5 nM by CCK-8 assay (reference value: 34.46 %); format: functional
[4] = tested on: OCI-Ly10; assay: Synergistic antiproliferative activity against human OCILY10 cells harboring MYD88 L265P assessed as inhibition of cell growth at 1600 nM incubated for 72 hrs in presence of BTK inhibitor, ibrutinib at 3.1 nM by CCK-8 assay (reference value: 64.69 %); format: functional
[5] = target: Receptor-type tyrosine-protein kinase FLT3 (Homo sapiens) (UniProt P36888); assay: Inhibition of FLT3 (unknown origin) at 100 nM incubated for 1 hr in presence of ATP by ELISA analysis relative to control
[6] = target: Fibroblast growth factor receptor 1 (Homo sapiens) (UniProt P11362); assay: Inhibition of FGFR1 (unknown origin) at 100 nM incubated for 1 hr in presence of ATP by ELISA analysis
[7] = target: Fibroblast growth factor receptor 3 (Homo sapiens) (UniProt P22607); assay: Inhibition of FGFR3 (unknown origin) at 100 nM incubated for 1 hr in presence of ATP by ELISA analysis
[8] = tested on: OCI-Ly10; assay: Induction of apoptosis in human OCILY10 cells assessed as late apoptotic cells at 0.1 uM incubated for 24 hrs by Annexin V-FITC/PI staining based flow cytometry (reference value: 3.71 %); format: functional
[9] = target: Platelet-derived growth factor receptor alpha (Homo sapiens) (UniProt P16234); assay: Inhibition of PDGFR-alpha (unknown origin) at 100 nM incubated for 1 hr in presence of ATP by ELISA analysis
[10] = tested on: OCI-Ly10; assay: Induction of apoptosis in human OCILY10 cells at 0.5 uM incubated for 24 hrs by Annexin V-FITC/PI staining based flow cytometry; format: functional
[11] = tested on: U2932; assay: Cytotoxicity against human U2932 cells assessed as inhibition of cell proliferation incubated for 72 hrs by CCK-8 assay; format: functional, cell-based; conditions: U2932, 72 h
[12] = tested on: OCI-Ly10; assay: Induction of apoptosis in human OCILY10 cells assessed as late apoptotic cells at 0.2 uM incubated for 48 hrs by Annexin V-FITC/PI staining based flow cytometry (reference value: 3.54 %); format: functional
[13] = target: Insulin receptor (Homo sapiens) (UniProt P06213); assay: Inhibition of IR (unknown origin) at 100 nM incubated for 1 hr in presence of ATP by ELISA analysis
[14] = tested on: OCI-Ly10; assay: Synergistic antiproliferative activity against human OCILY10 cells harboring MYD88 L265P assessed as inhibition of cell growth at 100 nM incubated for 72 hrs in presence of BTK inhibitor, ibrutinib at 1.6 nM by CCK-8 assay (reference value: 21.36 %); format: functional
[15] = tested on: OCI-Ly10; assay: Induction of apoptosis in human OCILY10 cells harboring MYD88 L265P assessed as upregulation of caspase-3 cleavage at 0.1 uM in presence of BTK inhibitor, ibrutinib by immunoblotting analysis; format: functional, cell-based
[16] = tested on: OCI-Ly10; assay: Induction of apoptosis in human OCILY10 cells harboring MYD88 L265P assessed as early apoptotic cells at 0.1 uM incubated for 48 hrs in presence of BTK inhibitor, ibrutinib by Annexin V-FITC/PI staining based flow cytometry (reference value: 6.76 %); format: functional
[17] = target: Fibroblast growth factor receptor 4 (Homo sapiens) (UniProt P22455); assay: Inhibition of FGFR4 (unknown origin) at 100 nM incubated for 1 hr in presence of ATP by ELISA analysis
[18] = target: Tyrosine-protein kinase ITK/TSK (Homo sapiens) (UniProt Q08881); assay: Inhibition of ITK (unknown origin) at 100 nM incubated for 1 hr in presence of ATP by ELISA analysis
[19] = tested on: OCI-Ly10; assay: Synergistic antiproliferative activity against human OCILY10 cells harboring MYD88 L265P assessed as inhibition of cell growth at 800 nM incubated for 72 hrs in presence of BTK inhibitor, ibrutinib at 25 nM by CCK-8 assay (reference value: 54.76 %); format: functional
[20] = tested on: OCI-Ly10; assay: Synergistic antiproliferative activity against human OCILY10 cells harboring MYD88 L265P assessed as inhibition of cell growth at 400 nM incubated for 72 hrs in presence of BTK inhibitor, ibrutinib at 25 nM by CCK-8 assay (reference value: 34.46 %); format: functional
[21] = tested on: OCI-Ly10; assay: Induction of apoptosis in human OCILY10 cells assessed as upregulation of caspase-3 cleavage at 0.1 to 1 uM incubated for 48 hrs by immunoblotting analysis; format: functional, cell-based; conditions: dose 0.1-1 µM
[22] = tested on: OCI-Ly10; assay: Induction of apoptosis in human OCILY10 cells harboring MYD88 L265P assessed as late apoptotic cells at 0.1 uM incubated for 48 hrs in presence of BTK inhibitor, ibrutinib by Annexin V-FITC/PI staining based flow cytometry (reference value: 6.59 %); format: functional
[23] = tested on: OCI-Ly10; assay: Induction of apoptosis in human OCILY10 cells assessed as early apoptotic cells at 1 uM incubated for 48 hrs by Annexin V-FITC/PI staining based flow cytometry (reference value: 5.4 %); format: functional
[24] = tested on: OCI-Ly10; assay: Induction of apoptosis in human OCILY10 cells assessed as early apoptotic cells at 0.1 uM incubated for 48 hrs by Annexin V-FITC/PI staining based flow cytometry (reference value: 5.4 %); format: functional
[25] = tested on: OCI-Ly10; assay: Induction of apoptosis in human OCILY10 cells assessed as early apoptotic cells at 0.5 uM incubated for 48 hrs by Annexin V-FITC/PI staining based flow cytometry (reference value: 5.4 %); format: functional
[26] = target: Tyrosine-protein kinase ABL1 (Homo sapiens) (UniProt P00519); assay: Inhibition of ABL (unknown origin) at 100 nM incubated for 1 hr in presence of ATP by ELISA analysis
[27] = tested on: OCI-Ly10; assay: Induction of apoptosis in human OCILY10 cells assessed as late apoptotic cells at 0.5 uM incubated for 24 hrs by Annexin V-FITC/PI staining based flow cytometry (reference value: 3.71 %); format: functional
[28] = target: Insulin-like growth factor 1 receptor (Homo sapiens) (UniProt P08069); assay: Inhibition of IGFR1 (unknown origin) at 100 nM incubated for 1 hr in presence of ATP by ELISA analysis
[29] = tested on: OCI-Ly10; assay: Synergistic antiproliferative activity against human OCILY10 cells harboring MYD88 L265P assessed as inhibition of cell growth at 1600 nM incubated for 72 hrs in presence of BTK inhibitor, ibrutinib at 1.6 nM by CCK-8 assay (reference value: 64.69 %); format: functional

Tyrosine-protein kinase ITK/TSK (Homo sapiens), sequence (Q08881 whole entry): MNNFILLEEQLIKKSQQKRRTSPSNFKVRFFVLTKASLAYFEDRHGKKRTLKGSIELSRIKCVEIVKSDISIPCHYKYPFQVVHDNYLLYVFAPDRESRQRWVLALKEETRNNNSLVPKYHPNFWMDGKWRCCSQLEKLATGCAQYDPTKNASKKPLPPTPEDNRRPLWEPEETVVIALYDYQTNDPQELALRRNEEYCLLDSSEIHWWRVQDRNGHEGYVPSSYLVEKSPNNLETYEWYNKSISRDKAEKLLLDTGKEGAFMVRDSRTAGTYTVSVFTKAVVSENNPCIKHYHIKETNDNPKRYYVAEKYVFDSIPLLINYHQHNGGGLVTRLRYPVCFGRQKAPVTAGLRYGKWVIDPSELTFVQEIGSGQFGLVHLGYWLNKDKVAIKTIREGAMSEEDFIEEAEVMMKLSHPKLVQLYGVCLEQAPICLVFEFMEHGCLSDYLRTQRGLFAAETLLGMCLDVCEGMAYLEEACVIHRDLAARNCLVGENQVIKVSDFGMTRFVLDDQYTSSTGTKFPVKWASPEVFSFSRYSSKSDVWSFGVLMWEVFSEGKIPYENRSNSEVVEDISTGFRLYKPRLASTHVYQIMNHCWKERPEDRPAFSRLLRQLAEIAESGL
Receptor-type tyrosine-protein kinase FLT3 (Homo sapiens), sequence (P36888 whole entry): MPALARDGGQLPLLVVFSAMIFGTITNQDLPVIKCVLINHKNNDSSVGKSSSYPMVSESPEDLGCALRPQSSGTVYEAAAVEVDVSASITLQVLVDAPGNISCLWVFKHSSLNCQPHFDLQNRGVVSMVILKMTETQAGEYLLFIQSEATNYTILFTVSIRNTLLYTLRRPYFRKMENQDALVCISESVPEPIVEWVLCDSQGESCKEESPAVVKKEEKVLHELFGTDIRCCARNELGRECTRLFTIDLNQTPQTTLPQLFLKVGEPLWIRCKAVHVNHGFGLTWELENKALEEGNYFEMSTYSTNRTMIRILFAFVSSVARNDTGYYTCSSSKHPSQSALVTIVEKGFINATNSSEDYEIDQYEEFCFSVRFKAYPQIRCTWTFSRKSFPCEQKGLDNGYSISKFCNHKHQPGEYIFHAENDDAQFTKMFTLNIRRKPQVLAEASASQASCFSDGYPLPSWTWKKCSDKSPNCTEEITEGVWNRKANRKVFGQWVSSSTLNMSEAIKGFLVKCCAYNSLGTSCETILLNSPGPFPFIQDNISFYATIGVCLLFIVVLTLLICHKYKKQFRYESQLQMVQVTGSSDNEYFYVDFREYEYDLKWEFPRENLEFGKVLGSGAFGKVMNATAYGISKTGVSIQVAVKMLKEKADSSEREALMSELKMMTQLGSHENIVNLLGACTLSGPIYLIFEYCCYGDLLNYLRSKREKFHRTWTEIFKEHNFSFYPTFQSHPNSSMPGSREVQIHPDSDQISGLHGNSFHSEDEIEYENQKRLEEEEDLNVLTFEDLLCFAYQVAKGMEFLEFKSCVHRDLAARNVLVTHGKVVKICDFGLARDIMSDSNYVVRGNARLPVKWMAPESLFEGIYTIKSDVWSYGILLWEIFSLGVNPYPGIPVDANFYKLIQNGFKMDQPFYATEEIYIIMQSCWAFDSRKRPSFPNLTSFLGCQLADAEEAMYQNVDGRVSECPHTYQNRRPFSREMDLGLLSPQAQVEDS
Receptor tyrosine-protein kinase erbB-4 (Homo sapiens), sequence (Q15303 whole entry): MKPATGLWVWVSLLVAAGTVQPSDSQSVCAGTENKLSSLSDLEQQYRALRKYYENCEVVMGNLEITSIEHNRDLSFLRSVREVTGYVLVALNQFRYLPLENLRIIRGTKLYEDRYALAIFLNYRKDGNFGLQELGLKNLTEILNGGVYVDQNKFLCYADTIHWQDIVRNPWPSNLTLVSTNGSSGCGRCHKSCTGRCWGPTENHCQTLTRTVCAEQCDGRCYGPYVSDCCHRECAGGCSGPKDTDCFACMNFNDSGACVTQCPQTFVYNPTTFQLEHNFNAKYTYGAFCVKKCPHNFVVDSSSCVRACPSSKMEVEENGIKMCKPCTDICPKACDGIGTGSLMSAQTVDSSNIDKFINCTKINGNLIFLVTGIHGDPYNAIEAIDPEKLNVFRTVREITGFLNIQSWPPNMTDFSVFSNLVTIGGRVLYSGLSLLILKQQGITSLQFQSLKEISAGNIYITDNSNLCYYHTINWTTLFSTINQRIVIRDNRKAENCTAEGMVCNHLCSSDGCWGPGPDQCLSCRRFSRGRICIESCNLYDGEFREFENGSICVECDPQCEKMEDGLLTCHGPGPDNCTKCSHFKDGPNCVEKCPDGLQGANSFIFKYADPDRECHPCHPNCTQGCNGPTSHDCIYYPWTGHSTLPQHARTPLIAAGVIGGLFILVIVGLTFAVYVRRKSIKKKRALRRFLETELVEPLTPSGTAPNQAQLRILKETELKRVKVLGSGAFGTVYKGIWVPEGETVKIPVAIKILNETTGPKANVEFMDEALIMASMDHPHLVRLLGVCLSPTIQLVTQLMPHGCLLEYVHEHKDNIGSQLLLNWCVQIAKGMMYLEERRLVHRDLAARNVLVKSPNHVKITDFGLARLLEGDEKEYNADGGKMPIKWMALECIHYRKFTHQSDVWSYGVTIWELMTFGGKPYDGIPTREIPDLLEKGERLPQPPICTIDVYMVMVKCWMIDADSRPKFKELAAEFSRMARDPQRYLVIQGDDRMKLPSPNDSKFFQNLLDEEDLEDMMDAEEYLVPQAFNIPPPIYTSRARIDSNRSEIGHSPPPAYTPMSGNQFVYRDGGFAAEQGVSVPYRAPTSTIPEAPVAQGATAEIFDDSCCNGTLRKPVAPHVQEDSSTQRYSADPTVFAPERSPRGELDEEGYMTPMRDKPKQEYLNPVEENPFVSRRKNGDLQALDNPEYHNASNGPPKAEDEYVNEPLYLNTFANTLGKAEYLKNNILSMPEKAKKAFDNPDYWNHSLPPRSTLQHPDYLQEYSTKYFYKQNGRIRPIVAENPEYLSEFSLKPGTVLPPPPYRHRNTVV
Fibroblast growth factor receptor 4 (Homo sapiens), sequence (P22455 22-802 limits assumed): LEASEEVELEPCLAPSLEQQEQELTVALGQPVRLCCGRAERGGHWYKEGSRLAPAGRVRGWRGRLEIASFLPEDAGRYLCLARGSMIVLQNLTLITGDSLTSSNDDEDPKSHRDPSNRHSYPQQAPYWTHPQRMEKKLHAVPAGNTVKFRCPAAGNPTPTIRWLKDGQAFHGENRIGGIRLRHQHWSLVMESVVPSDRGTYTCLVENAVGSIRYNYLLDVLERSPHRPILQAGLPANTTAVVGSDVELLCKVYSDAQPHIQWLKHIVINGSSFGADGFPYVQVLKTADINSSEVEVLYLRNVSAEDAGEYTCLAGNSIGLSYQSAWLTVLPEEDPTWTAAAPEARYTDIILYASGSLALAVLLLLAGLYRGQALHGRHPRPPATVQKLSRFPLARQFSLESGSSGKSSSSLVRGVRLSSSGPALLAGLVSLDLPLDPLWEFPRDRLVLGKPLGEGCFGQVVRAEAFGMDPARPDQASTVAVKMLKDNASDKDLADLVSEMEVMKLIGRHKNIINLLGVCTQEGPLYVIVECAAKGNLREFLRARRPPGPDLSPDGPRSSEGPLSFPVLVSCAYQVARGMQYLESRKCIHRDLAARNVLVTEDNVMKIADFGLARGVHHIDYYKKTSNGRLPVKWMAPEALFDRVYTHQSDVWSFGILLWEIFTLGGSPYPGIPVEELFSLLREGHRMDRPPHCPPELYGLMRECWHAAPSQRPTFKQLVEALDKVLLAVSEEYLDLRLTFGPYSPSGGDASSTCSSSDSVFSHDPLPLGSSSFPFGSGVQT
Fibroblast growth factor receptor 1 (Homo sapiens), sequence (P11362 22-822 limits assumed): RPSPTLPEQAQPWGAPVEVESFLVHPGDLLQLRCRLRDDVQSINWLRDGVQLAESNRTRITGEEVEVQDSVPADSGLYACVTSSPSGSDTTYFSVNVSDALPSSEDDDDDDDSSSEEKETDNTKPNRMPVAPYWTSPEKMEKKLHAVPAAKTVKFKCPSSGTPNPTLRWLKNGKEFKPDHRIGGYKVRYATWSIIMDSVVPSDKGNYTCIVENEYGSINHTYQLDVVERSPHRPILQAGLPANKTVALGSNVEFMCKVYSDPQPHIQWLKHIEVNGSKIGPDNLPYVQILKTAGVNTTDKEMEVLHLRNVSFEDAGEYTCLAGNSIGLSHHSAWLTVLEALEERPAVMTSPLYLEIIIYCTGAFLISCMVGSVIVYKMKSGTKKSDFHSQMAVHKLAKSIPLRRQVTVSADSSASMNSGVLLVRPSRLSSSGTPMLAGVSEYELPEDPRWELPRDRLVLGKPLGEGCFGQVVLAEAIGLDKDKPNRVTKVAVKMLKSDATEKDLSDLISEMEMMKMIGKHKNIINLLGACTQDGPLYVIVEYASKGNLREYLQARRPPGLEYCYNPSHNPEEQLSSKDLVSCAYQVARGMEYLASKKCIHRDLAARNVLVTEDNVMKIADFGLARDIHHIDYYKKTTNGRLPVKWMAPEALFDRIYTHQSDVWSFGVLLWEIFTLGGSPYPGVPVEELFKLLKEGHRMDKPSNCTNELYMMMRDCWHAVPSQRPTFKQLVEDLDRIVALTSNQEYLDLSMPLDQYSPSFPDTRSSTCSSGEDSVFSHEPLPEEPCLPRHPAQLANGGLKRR

In the case of Cn1cc(-c2cc3c(cc2NC(=O)c2coc(-c4ccnc(N)c4)n2)CC(C)(C)O3)cn1, the Activity [1] was “Active”, the inhibition [2] was “inactive” and the inhibition at 0.4 µM [3] was 75.7%. The inhibition at 1.6 µM [4] was 77.3%, the inhibition [5] was greater than 50% and the inhibition [6] was “inactive”. For the same compound, the inhibition [7] was “inactive”, the Activity [8] was 7.94% and the inhibition [9] was “inactive”. For the same compound, the Activity [10] was 48.3%, the pIC50 [11] was 5.90 and the Activity [12] was 13.2%. The inhibition [13] was “inactive”, the inhibition at 0.1 µM [14] was 23.7% and the Activity [15] was “Active”. The Activity [16] was 14.2%, the inhibition [17] was “inactive” and the inhibition [18] was “inactive”. For the same compound, the inhibition at 0.8 µM [19] was 88.4%, the inhibition at 0.4 µM [20] was 83.2% and the Activity [21] was “Active”. For the same compound, the Activity [22] was 22%, the Activity [23] was 54.4% and the Activity [24] was 12.9%. The Activity [25] was 45.7%, the inhibition [26] was “inactive” and the Activity [27] was 25.2%. For the same compound, the inhibition [28] was “inactive” and the inhibition at 1.6 µM [29] was 70.6%.
